Source: patent US9229008B2, “IL-8 level as a determinant of responsivity of a cancer to treatment” (Merck Sharp & Dohme Corp., priority 2008, dated 2016)

System: IL-8
Assay: IL-8 ELISA of growth media of A2058 melanoma cells
Assay type: cell-based, human
Conditions: A2058 B-RAF mutant melanoma cells, 8 hours exposure; DMSO control 21024
Protocol: Experiments were also performed wherein A2058 B-RAF mutant melanoma cells were treated with ERK inhibitor #1 (structure set forth herein), ERK inhibitor #2 (structure set forth herein), the PD MEK inhibitor
[drawing 23] or DMSO as a negative-control, for 8 hours.
These experiments were performed using IL-8 ELISAs from R&D Systems (Minneapolis, Minn.). Approximately 1×10^6 A2058 cells were plated onto 10 cm dishes containing 10 ml of growth media. The following day, compound was added and allowed to incubate for 8 hours. The media was removed from the plates, diluted 32× and used in the ELISA.

Row | Structure (SMILES) | IL-8 levels in growth media
1 | Cn1cnc2c(F)c(Nc3ccc(Br)cc3Cl)c(C(=O)NOCCO)cc21 [AR] | 1632 pg/mL
2 | O=C(NOC[C@H](O)CO)c1ccc(F)c(F)c1Nc1ccc(F)cc1F [PD] | 2080 pg/mL
